Values of other authors in patent publication US20070071689A1, “Advantageous combination for inhalation of nacystelyn and bronchodilators” (GALEPHAR M/F, priority 2003, published 2007).

Key:
[1] = administration via the inhalation route
[2] = in comparison to ACC
cystic fibrosis patients = details: in comparison to placebo

| Compound | bronchospasms (side effects) [1] | active dose [2] | mucolytic and antioxidant activity [2] | number and severity of lung exacerbations (cystic fibrosis patients) |
| --- | --- | --- | --- | --- |
| CC(=O)N[C@@H](CS)C(=O)O [ACC, acetylcysteine] | can be responsible for reflex bronchospasms | – | – | – |
| L-Lysine N-Acetylcysteinate [NAL] | – | active at lower doses than ACC | superior to the activity of ACC | significantly decrease the number and severity of lung exacerbations |
